Assays:
[1] = system: LPS-stimulated RAW 264.7 cells; assay: Nitrite inhibition assay in LPS-stimulated cells; assay type: cell-based; settings: Mus musculus; for IC50: RAW264.7, 24 h, read-out: Nitrite Inhibition (IC50 Value)
Method: As an indicator of NO synthesis, nitrite amount was measured in the supernatant of LPS-stimulated RAW 264.7 cells. Cells were plated on a 24-well plate with a density of 2 × 10^5 cells/well. After seeding, cells were treated with LPS (500 ng/mL final concentration) and varying concentrations of the test compounds for 24 h. Ketorolac (200 μM) was used as a standard drug. Then, 100 μL of culture supernatant from each well was mixed with an equal volume of Griess reagent, and incubated at room temperature for 10 min. The formation of an azo compound was measured spectrophotometrically at 550 nm wavelength. Finally, nitrite concentration was determined from a standard curve of sodium nitrite, and nitrite inhibition percentages of test compounds and the reference drug were calculated based on the amount of nitrite produced by the control cells (treated only with LPS).

COX-2 = biological target: T1, COX-2 (Mus musculus, UniProt Q05769); assay: Cell-based assay for COX-2 inhibition (PGE2 ELISA); settings: LPS-induced RAW 264.7 cells, conversion of arachidonic acid to PGE2
T1 construct: treated with 500 ng/mL LPS for the next 24 h to induce the production of COX-2; endogenous in cells; host or cells: RAW 264.7 cells, LPS-induced
T1 sequence (Q05769 18-604): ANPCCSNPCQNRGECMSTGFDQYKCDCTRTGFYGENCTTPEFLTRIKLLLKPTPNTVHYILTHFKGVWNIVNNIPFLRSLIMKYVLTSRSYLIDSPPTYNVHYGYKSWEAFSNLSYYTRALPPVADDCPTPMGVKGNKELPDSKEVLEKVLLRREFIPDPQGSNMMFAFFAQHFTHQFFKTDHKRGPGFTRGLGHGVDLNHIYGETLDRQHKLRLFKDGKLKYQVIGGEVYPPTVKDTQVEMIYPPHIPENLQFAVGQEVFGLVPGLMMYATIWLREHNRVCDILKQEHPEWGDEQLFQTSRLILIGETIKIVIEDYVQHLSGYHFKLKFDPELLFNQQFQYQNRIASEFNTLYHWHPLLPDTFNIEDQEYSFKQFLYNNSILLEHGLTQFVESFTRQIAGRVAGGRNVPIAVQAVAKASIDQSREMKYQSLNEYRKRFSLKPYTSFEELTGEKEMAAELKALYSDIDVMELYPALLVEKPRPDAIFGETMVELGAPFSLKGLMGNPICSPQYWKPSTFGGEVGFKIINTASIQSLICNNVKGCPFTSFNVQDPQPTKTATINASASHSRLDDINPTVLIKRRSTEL
Method: This assay was carried out according to the method described by Stanikunaite et al. with some modifications. In brief, RAW 264.7 cells (2 × 10^5 cells/well) were cultured in a 24-well plate in DMEM supplemented with 10% FBS and incubated at 37 °C for 24 h for seeding. After seeding, cells were washed with PBS (400 µL) and treated with 500 ng/mL LPS for the next 24 h to induce the production of COX-2. Then, the induced cells were washed thoroughly with PBS to remove LPS completely and treated with different concentrations of test compounds for 4 h. Arachidonic acid (300 µM) was added and the cells were further incubated for 30 min. Next, the PGE2 levels were determined in the culture supernatant using a PGE2 ELISA kit (Cayman Chemical Co., Ann Arbor, MI, USA) according to the manufacturer’s instructions. COX-2 enzyme activity was determined by the conversion of exogenous arachidonic acid to PGE2, and was expressed as the percentage of negative control (without test compounds). Finally, IC50 values were calculated for all the tested compounds. Indomethacin was used as a positive control.

yeast α-glucosidase = biological target: T2, yeast α-glucosidase (Saccharomyces cerevisiae, UniProt P53341); assay: α-Glucosidase inhibition assay; assay type: biochemical
T2 construct: purchased Sigma-Aldrich (Saint Louis, MO, USA)
T2 sequence (P53341 whole entry): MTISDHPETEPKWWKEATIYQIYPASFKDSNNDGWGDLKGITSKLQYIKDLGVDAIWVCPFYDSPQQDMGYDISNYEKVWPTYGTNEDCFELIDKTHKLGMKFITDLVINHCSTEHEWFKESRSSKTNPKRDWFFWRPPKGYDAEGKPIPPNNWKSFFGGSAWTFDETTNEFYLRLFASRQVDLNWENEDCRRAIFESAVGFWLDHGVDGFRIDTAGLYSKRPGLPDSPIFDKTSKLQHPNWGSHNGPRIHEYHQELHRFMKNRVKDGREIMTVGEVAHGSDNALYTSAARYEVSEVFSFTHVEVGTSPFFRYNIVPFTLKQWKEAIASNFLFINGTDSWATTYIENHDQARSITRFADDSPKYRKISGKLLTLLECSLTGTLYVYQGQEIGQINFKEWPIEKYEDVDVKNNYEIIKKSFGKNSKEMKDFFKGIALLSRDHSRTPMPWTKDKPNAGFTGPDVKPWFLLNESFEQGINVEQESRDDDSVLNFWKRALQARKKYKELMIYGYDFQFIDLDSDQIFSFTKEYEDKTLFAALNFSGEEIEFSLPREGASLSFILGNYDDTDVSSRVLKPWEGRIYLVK
Method: The α-glucosidase assay was performed with slight modifications of a previous method. In short, 15 µL of the test sample at various concentrations was added to 140 µL of enzyme solution (0.0073 U/mL of α-glucosidase in 0.05 M sodium phosphate buffer containing 100 mM NaCl) in a 96-well plate. Reaction mixtures were incubated at 37 °C for 15 min. Then, 25 µL of 0.7 mM p-nitrophenyl-α-D-glucopyranoside (PNPG) solution in 0.05 M sodium phosphate buffer (pH 6.8) was added to each well.

electric eel AChE = biological target: T3, electric eel AChE (Electrophorus electricus, UniProt O42275); assay: biochemical; settings: in vitro, electric eel enzyme; read-out: AChE inhibition IC50
T3 construct: purchased Sigma-Aldrich (Saint Louis, MO, USA)
T3 sequence (O42275 24-633): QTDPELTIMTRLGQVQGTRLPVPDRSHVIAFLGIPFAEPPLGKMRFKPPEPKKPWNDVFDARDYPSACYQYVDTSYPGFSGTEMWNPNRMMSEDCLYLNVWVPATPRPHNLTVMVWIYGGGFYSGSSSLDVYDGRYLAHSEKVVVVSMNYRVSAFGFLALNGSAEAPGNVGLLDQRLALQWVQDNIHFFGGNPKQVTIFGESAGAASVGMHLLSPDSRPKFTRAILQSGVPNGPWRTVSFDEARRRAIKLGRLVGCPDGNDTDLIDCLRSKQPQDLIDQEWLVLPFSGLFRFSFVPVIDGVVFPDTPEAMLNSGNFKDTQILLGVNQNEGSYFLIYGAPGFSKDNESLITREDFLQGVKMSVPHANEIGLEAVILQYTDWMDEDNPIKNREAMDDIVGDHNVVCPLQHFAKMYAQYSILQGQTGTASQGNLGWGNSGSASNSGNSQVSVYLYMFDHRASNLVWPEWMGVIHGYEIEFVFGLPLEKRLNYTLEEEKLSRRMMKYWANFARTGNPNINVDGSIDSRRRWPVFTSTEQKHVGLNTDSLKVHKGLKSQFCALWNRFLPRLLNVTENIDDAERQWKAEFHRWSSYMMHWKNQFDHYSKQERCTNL
Method: The AChE inhibitory properties of the compounds were determined using a 96-well microplate colorimetric method as described by Ellman et al.. Donepezil was used as a positive control.

egg albumin = biological target: T4, egg albumin (Gallus gallus, UniProt P01012); assay: Albumin denaturation inhibition assay; set-up: species or system chicken; settings: for IC50: egg albumin, heated at 70 °C, in vitro
T4 sequence (P01012 1-386): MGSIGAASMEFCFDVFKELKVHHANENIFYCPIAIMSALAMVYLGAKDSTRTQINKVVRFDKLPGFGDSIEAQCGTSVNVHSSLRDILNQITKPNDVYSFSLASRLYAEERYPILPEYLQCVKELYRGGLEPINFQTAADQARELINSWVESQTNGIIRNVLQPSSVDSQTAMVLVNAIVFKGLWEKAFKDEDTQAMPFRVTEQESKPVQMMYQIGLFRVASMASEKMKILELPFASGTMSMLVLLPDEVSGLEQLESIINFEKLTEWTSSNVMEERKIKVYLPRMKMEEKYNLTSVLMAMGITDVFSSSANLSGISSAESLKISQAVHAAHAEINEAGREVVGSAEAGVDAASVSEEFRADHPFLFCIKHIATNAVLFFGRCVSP
Method: Albumin denaturation inhibition effects of the compounds were confirmed through a previously described method. Egg albumin was used in this experiment, and the reaction mixture contained 0.1 mL of egg albumin, 0.7 mL of phosphate-buffered saline (PBS), and varying concentrations of different compounds (0.5 mL). Mili-Q water (0.5 mL) instead of the compounds was used in the negative control. The reaction mixtures were incubated at 37 °C for 15 min and heated at 70 °C for 5 min. The absorbance was measured at 660 nm after cooling at room temperature. Ketorolac was used as a standard drug. Percentage of albumin denaturation inhibition was calculated according to the following formula:Percentage of inhibition = (1 − (A/B)) × 100, where A is the absorbance of the test sample, and B is the absorbance of the negative control.

RAW 264.7 cells = assay: cells; assay type: cell-based; settings: Mus musculus, RAW264.7, 24 h, read-out: Inhibition of cell proliferation, deviation from the control group
Method: RAW 264.7 cell viability was evaluated through the MTT assay. Cells were seeded in a 24-well plate at a density of 2 × 10^5 cells/well and incubated with the OP compounds for 24 h. Ketroloac (200 μM) was also assessed to determine its cytotoxicity on RAW 264.7 cells. After incubation, the supernatant was removed, and the cells were washed with PBS. Aliquots of 100 μL of MTT solution (0.5 mg/mL in PBS) were added to each well, and the plate was incubated at 37 °C for 3 h. Afterwards, dimethyl sulfoxide (400 μL) was added to each well, and the plate was shaken for 10 min at room temperature to dissolve the formazan crystals. The absorbance was measured at 570 nm wavelength using a microplate reader, and the cell viability was calculated from the absorbance of the treated versus untreated control cells.

| Structure (SMILES) | IC50 [1] | IC50 (COX-2) | IC50 (yeast α-glucosidase) | IC50 (electric eel AChE) | IC50 (egg albumin) | inhibition at 12 µM (RAW 264.7 cells) | inhibition at 200 µM ([1]; RAW264.7, 200 μM, compared to cells treated only with LPS, read-out: Inhibition of nitrite formation in the supernatant) | inhibition at 200 µM (egg albumin; at 200 µM) |
| --- | --- | --- | --- | --- | --- | --- | --- | --- |
| CC(C)=CCC/C(C)=C/Cc1c([C@@H]2CC(=O)c3c(cc(O)c(CC=C(C)C)c3O)O2)ccc(O)c1O [NC, nymphaeol-C] | 2.4 µM | 15.4 µM | 4.09 µM | 15.7 µM | 0.37 µM | – | – | – |
| CC(C)=CCC/C(C)=C/Cc1cc(C2CC(=O)c3c(O)cc(O)cc3O2)cc(O)c1O (centres unmarked) [INB, isonymphaeol-B] | 6.2 µM | 23.8 µM | 5.12 µM | 7.23 µM | 0.42 µM | 3 to 5% | – | – |
| O=C(c1ccccc1)c1ccc2n1CCC2C(=O)O (centres unmarked) [ketorolac, reference compound] | – | – | – | – | – | – | 26% | 52% |
| CC(C)=CCC/C(C)=C/Cc1c(O)cc2c(c1O)C(=O)C[C@@H](c1ccc(O)c(O)c1)O2 [NA, nymphaeol-A] | 3.2 µM | 11.7 µM | 3.77 µM | 7.77 µM | 0.26 µM | – | – | – |
| CC(C)=CCC/C(C)=C/Cc1cc([C@@H]2CC(=O)c3c(O)cc(O)cc3O2)ccc1O [GN, 3′-geranyl-naringenin] | 7 µM | 24 µM | 5.4 µM | 12.3 µM | 1.02 µM | – | – | – |
| CC(C)=CCC/C(C)=C/Cc1c([C@@H]2CC(=O)c3c(O)cc(O)cc3O2)ccc(O)c1O [NB, nymphaeol-B] | 5.4 µM | 17.9 µM | 5.66 µM | 15.1 µM | 0.54 µM | 3 to 5% | – | – |
